Results as given in article PMC9570594, “Development of Novel Pyridine-Thiazole Hybrid Molecules as Potential Anticancer Agents” (Molecules, 2022).

Legend:
SF-539 (CNS Cancer) = test: NCI one-dose SRB assay; conditions: 10 μM, 48 h
Method: (§1) A primary anticancer assay was performed on a panel of approximately sixty human tumor cell lines derived from nine neoplastic diseases, in accordance with the protocol of the Drug Evaluation Branch, National Cancer Institute, Bethesda [31, 32, 33, 34, 35]. Tested compounds were added to the culture at a single concentration (10^−5 M) and the cultures were incubated for 48 h. End point determinations were made with a protein binding dye, Sulphorhodamine B (SRB). […] The percentage growth was evaluated spectrophotometrically versus controls not treated with test agents.

[1] = system: NCI/ADR-RES (Ovarian Cancer); test: NCI five-dose SRB assay; format: cell-based; conditions: Homo sapiens, 48 h
[2] = system: Renal Cancer cell lines (MG_MID); test: NCI five-dose SRB assay; format: cell-based; conditions: Homo sapiens, 48 h
[3] = system: murine macrophages of J774.2 line; test: MTT assay of cell viability; conditions: Mus musculus, J774.2, 72 h
KB3-1 (cervix) = test: MTT assay of cell viability; conditions: Homo sapiens, KB 3-1, 72 h, KB3-1; 72 h of incubation, M ± SD
T-47D (Breast Cancer) = test: NCI five-dose SRB assay; format: cell-based; conditions: Homo sapiens, T47D, 48 h
HT29 (Colon Cancer) [4] = test: NCI one-dose SRB assay; conditions: 10 μM, 48 h
Method: (§2) Tested compounds were added to the culture at a single concentration (10^−5 M) and the cultures were incubated for 48 h. End point determinations were made with a protein binding dye, Sulphorhodamine B (SRB). […] The percentage growth was evaluated spectrophotometrically versus controls not treated with test agents.

CCRF-CEM (Leukemia) = test: NCI five-dose SRB assay; format: cell-based; conditions: Homo sapiens, 48 h
DU-145 (Prostate Cancer) = test: NCI five-dose SRB assay; format: cell-based; conditions: Homo sapiens, 48 h
786-0 (Renal Cancer) = test: NCI five-dose SRB assay; format: cell-based; conditions: Homo sapiens, 48 h
[5] = system: panel of 60 cancer cell lines; test: NCI DTP one-dose primary anticancer assay (10^-5 M, SRB)
Colo 205 (Colon Cancer) = test: NCI five-dose SRB assay; format: cell-based; conditions: Homo sapiens, 48 h
[6] = system: panel of cancer cell lines; test: MTT assay, summary over the tumor cell lines; conditions: Homo sapiens, 72 h, read-out: IC50 toward tumor cells (depending on tumor cell line)
[7] = system: Breast Cancer cell lines (MG_MID); test: NCI five-dose SRB assay; format: cell-based; conditions: Homo sapiens, 48 h
SN12C (Renal Cancer) = test: NCI five-dose SRB assay; format: cell-based; conditions: Homo sapiens, 48 h
MCF-7 (breast) = test: MTT assay of cell viability; conditions: Homo sapiens, MCF7, 72 h, MCF-7; 72 h of incubation, M ± SD
SW-629 (Colon Cancer) = test: NCI five-dose SRB assay; format: cell-based; conditions: Homo sapiens, 48 h
MCF-7 cell line = test: Time-dependent viability test (MTT); format: cell-based, human; conditions: MCF-7, 10 µM
Method: A strong correlation was detected between the treatment time and an anti-proliferative potential. The cytotoxic effect of this compound develops after […] of incubation. This feature may explain the difference of cell viability compared with the NCI results which were obtained at 48th hour of incubation of cells with derivative 4. […] The result obtained at 48th hour of treatment of the MCF-7 cells with the compound 4 in concentration 10 µM correlates to some extent with data of the NCI screening. At that time point, 43% of the cells died.
Time-dependent viability data were obtained as a result of 24, 48, 72, and 124 h MTT tests performed on the MCF-7 cells treated with the compound 4 (10 μM).

KM12 (Colon Cancer) = test: NCI one-dose SRB assay; conditions: 10 μM, 48 h
Method: as §1

A549 (lung) = test: MTT assay of cell viability; conditions: Homo sapiens, A549, 72 h
HCT-116 (colon) = test: MTT assay of cell viability; conditions: Homo sapiens, HCT-116, 72 h, HCT-116; 72 h of incubation, M ± SD
[8] = system: Leukemia cell lines (MG_MID); test: NCI five-dose SRB assay; format: cell-based; conditions: Homo sapiens, 48 h
SNB-19 (CNS Cancer) = test: NCI five-dose SRB assay; format: cell-based; conditions: Homo sapiens, 48 h
[9] = system: NCI-H23 (Non-Small Cell Lung Cancer); test: NCI five-dose SRB assay; format: cell-based; conditions: Homo sapiens, 48 h
OVCAR-5 (Ovarian Cancer) = test: NCI five-dose SRB assay; format: cell-based; conditions: Homo sapiens, 48 h
SF-295 (CNS Cancer) = test: NCI five-dose SRB assay; format: cell-based; conditions: Homo sapiens, 48 h
ACHN (Renal Cancer) = test: NCI five-dose SRB assay; format: cell-based; conditions: Homo sapiens, 48 h
HT29 (Colon Cancer) [10] = test: NCI five-dose SRB assay; format: cell-based; conditions: Homo sapiens, HT-29, 48 h
[11] = system: Ovarian Cancer cell lines (MG_MID); test: NCI five-dose SRB assay; format: cell-based; conditions: Homo sapiens, 48 h
[12] = system: NCI-H460 (Non-Small Cell Lung Cancer); test: NCI one-dose SRB assay; conditions: 10 μM, 48 h
Method: as §2

MALME-3M (Melanoma) = test: NCI five-dose SRB assay; format: cell-based; conditions: Homo sapiens, 48 h
[13] = system: Non-Small Cell Lung Cancer cell lines (MG_MID); test: NCI five-dose SRB assay; format: cell-based; conditions: Homo sapiens, 48 h
A498 (Renal Cancer) = test: NCI five-dose SRB assay; format: cell-based; conditions: Homo sapiens, 48 h
HCT-15 (Colon Cancer) = test: NCI one-dose SRB assay; conditions: 10 μM, 48 h
Method: as §2

[14] = system: Prostate Cancer cell lines (MG_MID); test: NCI five-dose SRB assay; format: cell-based; conditions: Homo sapiens, 48 h
[15] = system: HCT-116 p53 (−/−) colon cancer cells; test: MTT assay of cell viability; conditions: Homo sapiens, HCT-116, 72 h
Source text: The cell lines used in our work were kindly provided by a Collection at the Institute of Molecular Biology and Genetics, National Academy of Sciences of Ukraine (Kyiv, Ukraine).

UACC-257 (Melanoma) = test: NCI five-dose SRB assay; format: cell-based; conditions: Homo sapiens, 48 h
U251 (CNS Cancer) = test: NCI one-dose SRB assay; conditions: 10 μM, 48 h
Method: as §1

[16] = system: EKVX (Non-Small Cell Lung Cancer); test: NCI five-dose SRB assay; format: cell-based; conditions: Homo sapiens, 48 h

CCOC(=O)c1ccc(NC(=O)CSC(CC(=O)c2sc(Nc3ccccn3)nc2C)c2ccccc2F)cc1 (stereo not drawn) [Compound 4, Ethyl 4-[[2-[1-(2-Fluorophenyl)-3-[4-methyl-2-(2-pyridylamino)thiazol-5-yl]-3-oxopropyl]sulfanylacetyl]amino]benzoate]
Growth % (SF-539 (CNS Cancer)): −27.26% | GI50 [1]: 24.1 µM | GI50 [2]: 33.4 µM | IC50 [3]: > 50 µM | IC50 (KB3-1 (cervix)): 7.63 ± 0.38 µM | GI50 (T-47D (Breast Cancer)): 18 µM | Growth % (HT29 (Colon Cancer) [4]): −28.32% | GI50 (CCRF-CEM (Leukemia)): 18.6 µM | GI50 (DU-145 (Prostate Cancer)): 67.2 µM | GI50 (786-0 (Renal Cancer)): 24.8 µM | Mean Growth, % ([5]; 10 μM, 48 h, 60 cell lines): −2.78% | Range of Growth, % ([5]; 10 μM, 48 h, 60 cell lines): −76.78–41.12% | Positive Cytostatic Effect ([5]; 10 μM, number of cell lines with percent growth from 0 to 50 / total number of cell lines): 35/60 | Positive Cytotoxic Effect ([5]; 10 μM, number of cell lines with percent growth of <0 / total number of cell lines): 25/60 | inhibition at 10 µM ([5]; Homo sapiens, 48 h, read-out: growth inhibition of all 60 tested cancer cell lines): > 50% | GI50 (Colo 205 (Colon Cancer)): > 100 µM | IC50 [6]: 0.57 to 7.8 µM | GI50 [7]: 14.4 µM | GI50 (SN12C (Renal Cancer)): 28 µM | IC50 (MCF-7 (breast)): 2.79 ± 1.31 µM | GI50 (SW-629 (Colon Cancer)): 75.3 µM | cells killed (MCF-7 cell line; 24 h): 19.9% | cells died (MCF-7 cell line; 48 h): 43% | cells died (MCF-7 cell line; 124 h): 90% | Growth % (KM12 (Colon Cancer)): −59.82% | IC50 (A549 (lung)): 8.05 ± 0.24 µM | IC50 (HCT-116 (colon)): 6.11 ± 0.24 µM | GI50 [8]: 22.5 µM | GI50 (SNB-19 (CNS Cancer)): 36.9 µM | GI50 [9]: 22.7 µM | GI50 (OVCAR-5 (Ovarian Cancer)): 74.4 µM | GI50 (SF-295 (CNS Cancer)): 32.2 µM | GI50 (ACHN (Renal Cancer)): 45.6 µM | GI50 (HT29 (Colon Cancer) [10]): 58.3 µM | GI50 [11]: 41.1 µM | Growth % [12]: −40.69% | GI50 (MALME-3M (Melanoma)): 25.4 µM | GI50 [13]: 27.6 µM | GI50 (A498 (Renal Cancer)): 69.2 µM | Growth % (HCT-15 (Colon Cancer)): −42.04% | GI50 [14]: 45.5 µM | IC50 [15]: 3.43 ± 0.9 µM | GI50 (UACC-257 (Melanoma)): 38.4 µM | Growth % (U251 (CNS Cancer)): −70.41% | GI50 [16]: 19 µM
